Data from PubChem BioAssay AID2060504 (Molecular Pharmacology Branch, DTP, NCI, 2025).

Test system: 636577-100-R-J1-PDC complex spheroid viability
Assay: Anticancer human tumor 636577-100-R-J1-PDC patient-derived endometrial adenocarcinoma cell line growth inhibition [GQUAD]
Conditions: for IC50: curve of first compound; for viability, T/C: stronger effect = lower value
How it was run: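 Multi-cell-type spheroids of tumor cells with HUVEC and mesenchymal stem cells, treated with drug combinations. Concentrations descend in half-log steps from near clinical Cmax, or from 10 microM where Cmax is unknown; viability read-out.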

[1] = second compound 0.0316 µM, first compound 0.0316 µM
[2] = second compound 0.0316 µM, first compound 0.1 µM
[3] = second compound 0.0316 µM, first compound 0.316 µM
[4] = second compound 0.0316 µM, first compound 1 µM
[5] = second compound 0.0316 µM, first compound 3.16 µM
[6] = second compound 0.0316 µM, first compound 10 µM
[7] = second compound 0.1 µM, first compound 0.0316 µM
[8] = second compound 0.1 µM, first compound 0.1 µM
[9] = second compound 0.1 µM, first compound 0.316 µM
[10] = second compound 0.1 µM, first compound 1 µM
[11] = second compound 0.1 µM, first compound 3.16 µM
[12] = second compound 0.1 µM, first compound 10 µM
[13] = second compound 0.316 µM, first compound 0.0316 µM
[14] = second compound 0.316 µM, first compound 0.1 µM
[15] = second compound 0.316 µM, first compound 0.316 µM
[16] = second compound 0.316 µM, first compound 1 µM
[17] = second compound 0.316 µM, first compound 3.16 µM
[18] = second compound 0.316 µM, first compound 10 µM
[19] = second compound 1 µM, first compound 0.0316 µM
[20] = second compound 1 µM, first compound 0.1 µM
[21] = second compound 1 µM, first compound 0.316 µM
[22] = second compound 1 µM, first compound 1 µM
[23] = second compound 1 µM, first compound 3.16 µM
[24] = second compound 1 µM, first compound 10 µM
[25] = second compound 3.16 µM, first compound 0.0316 µM
[26] = second compound 3.16 µM, first compound 0.1 µM
[27] = second compound 3.16 µM, first compound 0.316 µM
[28] = second compound 3.16 µM, first compound 1 µM
[29] = second compound 3.16 µM, first compound 3.16 µM
[30] = second compound 3.16 µM, first compound 10 µM
[31] = second compound 10 µM, first compound 0.0316 µM
[32] = second compound 10 µM, first compound 0.1 µM
[33] = second compound 10 µM, first compound 0.316 µM
[34] = second compound 10 µM, first compound 1 µM
[35] = second compound 10 µM, first compound 3.16 µM
[36] = second compound 10 µM, first compound 10 µM
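Note: viability read after seven days of drug exposure.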
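Throughout, for viability, T/C: luminescence signal used as a proxy for viable cells; 100% = DMSO vehicle control wells.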

## COc1ncnc(C2CC2)c1-c1ncc2cnn(Cc3ccc(-c4nc(C(F)(F)F)cn4C(C)C)cc3)c2n1 + Cc1[nH]c2ccc(F)cc2c1-c1nc2c3cccnc3c3ncccc3c2[nH]1
Second compound 0.0316 µM
  IC50: > 10000 nM
Second compound 0.1 µM
  IC50: > 10000 nM
Second compound 0.316 µM
  IC50: > 10000 nM
Second compound 1 µM
  IC50: > 10000 nM
Second compound 3.16 µM
  IC50: < 31.6 nM
Second compound 10 µM
  IC50: < 31.6 nM
[1]
  viability, T/C: 86.6%
[2]
  viability, T/C: 67.6%
[3]
  viability, T/C: 77.3%
[4]
  viability, T/C: 57.8%
[5]
  viability, T/C: 66.7%
[6]
  viability, T/C: 75.3%
[7]
  viability, T/C: 74.8%
[8]
  viability, T/C: 57.1%
[9]
  viability, T/C: 87%
[10]
  viability, T/C: 54.6%
[11]
  viability, T/C: 79.9%
[12]
  viability, T/C: 67.6%
[13]
  viability, T/C: 63.8%
[14]
  viability, T/C: 60.6%
[15]
  viability, T/C: 62.8%
[16]
  viability, T/C: 64.5%
[17]
  viability, T/C: 77.3%
[18]
  viability, T/C: 66.6%
[19]
  viability, T/C: 57.8%
[20]
  viability, T/C: 59%
[21]
  viability, T/C: 60.1%
[22]
  viability, T/C: 50.2%
[23]
  viability, T/C: 50.1%
[24]
  viability, T/C: 57.4%
[25]
  viability, T/C: 20.8%
[26]
  viability, T/C: 27.6%
[27]
  viability, T/C: 22.6%
[28]
  viability, T/C: 28.4%
[29]
  viability, T/C: 27.5%
[30]
  viability, T/C: 26.1%
[31]
  viability, T/C: 28.9%
[32]
  viability, T/C: 29.5%
[33]
  viability, T/C: 26.4%
[34]
  viability, T/C: 27.1%
[35]
  viability, T/C: 32.1%
[36]
  viability, T/C: 32.6%

## CC1COCCN1c1cc(C2(O)CC3CCC(C2)O3)c2cnn(-c3ccn[nH]3)c2n1 (stereo not given) + Cc1cnc(CNC(=O)c2c(=O)c3ccc(N4CCCN(C)CC4)nc3n3c2sc2ccccc23)cn1
Second compound 0.0316 µM
  IC50: < 31.6 nM
Second compound 0.1 µM
  IC50: < 31.6 nM
Second compound 0.316 µM
  IC50: < 31.6 nM
Second compound 1 µM
  IC50: < 31.6 nM
Second compound 3.16 µM
  IC50: < 31.6 nM
Second compound 10 µM
  IC50: < 31.6 nM
[1]
  viability, T/C: 28.1%
[2]
  viability, T/C: 18.8%
[3]
  viability, T/C: 14.3%
[4]
  viability, T/C: 6.98%
[5]
  viability, T/C: 2.58%
[6]
  viability, T/C: 1.35%
[7]
  viability, T/C: 21%
[8]
  viability, T/C: 17.8%
[9]
  viability, T/C: 15.2%
[10]
  viability, T/C: 6.8%
[11]
  viability, T/C: 3.54%
[12]
  viability, T/C: 1.24%
[13]
  viability, T/C: 17.7%
[14]
  viability, T/C: 16.3%
[15]
  viability, T/C: 13.8%
[16]
  viability, T/C: 7.53%
[17]
  viability, T/C: 3.12%
[18]
  viability, T/C: 1.5%
[19]
  viability, T/C: 15%
[20]
  viability, T/C: 14.2%
[21]
  viability, T/C: 11.4%
[22]
  viability, T/C: 6.81%
[23]
  viability, T/C: 3.62%
[24]
  viability, T/C: 1.25%
[25]
  viability, T/C: 16.1%
[26]
  viability, T/C: 16.7%
[27]
  viability, T/C: 13.5%
[28]
  viability, T/C: 8.88%
[29]
  viability, T/C: 3.75%
[30]
  viability, T/C: 1.52%
[31]
  viability, T/C: 15.6%
[32]
  viability, T/C: 15.8%
[33]
  viability, T/C: 14%
[34]
  viability, T/C: 6.65%
[35]
  viability, T/C: 2.67%
[36]
  viability, T/C: 0.14%

## CC1COCCN1c1cc(C2(S(C)(=N)=O)CC2)nc(-c2ccnc3[nH]ccc23)n1 (stereo not given) + Cc1cnc(CNC(=O)c2c(=O)c3ccc(N4CCCN(C)CC4)nc3n3c2sc2ccccc23)cn1
Second compound 0.0316 µM
  IC50: 239 nM
Second compound 0.1 µM
  IC50: < 31.6 nM
Second compound 0.316 µM
  IC50: < 31.6 nM
Second compound 1 µM
  IC50: < 31.6 nM
Second compound 3.16 µM
  IC50: < 31.6 nM
Second compound 10 µM
  IC50: < 31.6 nM
[1]
  viability, T/C: 56.2%
[2]
  viability, T/C: 50%
[3]
  viability, T/C: 54.1%
[4]
  viability, T/C: 30.5%
[5]
  viability, T/C: 45.3%
[6]
  viability, T/C: 12.3%
[7]
  viability, T/C: 30.8%
[8]
  viability, T/C: 29.6%
[9]
  viability, T/C: 33.5%
[10]
  viability, T/C: 21.7%
[11]
  viability, T/C: 27.5%
[12]
  viability, T/C: 12.2%
[13]
  viability, T/C: 23.4%
[14]
  viability, T/C: 24.4%
[15]
  viability, T/C: 25.2%
[16]
  viability, T/C: 22%
[17]
  viability, T/C: 24.2%
[18]
  viability, T/C: 14.5%
[19]
  viability, T/C: 21.1%
[20]
  viability, T/C: 22.7%
[21]
  viability, T/C: 21.8%
[22]
  viability, T/C: 18.3%
[23]
  viability, T/C: 24.8%
[24]
  viability, T/C: 9.7%
[25]
  viability, T/C: 18.5%
[26]
  viability, T/C: 18.5%
[27]
  viability, T/C: 21.2%
[28]
  viability, T/C: 19.4%
[29]
  viability, T/C: 21.5%
[30]
  viability, T/C: 14.3%
[31]
  viability, T/C: 16.9%
[32]
  viability, T/C: 22.2%
[33]
  viability, T/C: 23.4%
[34]
  viability, T/C: 22.7%
[35]
  viability, T/C: 23%
[36]
  viability, T/C: 13.2%

## COc1ccc([C@@H](O)c2cc(-c3ncnc4cc(N5CCOCC5)ccc34)c(F)cc2Cl)nn1 + Cc1cnc(CNC(=O)c2c(=O)c3ccc(N4CCCN(C)CC4)nc3n3c2sc2ccccc23)cn1
Second compound 0.0316 µM
  IC50: < 31.6 nM
Second compound 0.1 µM
  IC50: < 31.6 nM
Second compound 0.316 µM
  IC50: < 31.6 nM
Second compound 1 µM
  IC50: < 31.6 nM
Second compound 3.16 µM
  IC50: < 31.6 nM
Second compound 10 µM
  IC50: < 31.6 nM
[1]
  viability, T/C: 47.1%
[2]
  viability, T/C: 42.8%
[3]
  viability, T/C: 20%
[4]
  viability, T/C: 10.8%
[5]
  viability, T/C: 9.47%
[6]
  viability, T/C: 9.92%
[7]
  viability, T/C: 30.6%
[8]
  viability, T/C: 22%
[9]
  viability, T/C: 15.2%
[10]
  viability, T/C: 12.2%
[11]
  viability, T/C: 13.5%
[12]
  viability, T/C: 11.6%
[13]
  viability, T/C: 22.8%
[14]
  viability, T/C: 21.2%
[15]
  viability, T/C: 13%
[16]
  viability, T/C: 13.2%
[17]
  viability, T/C: 13.6%
[18]
  viability, T/C: 12.8%
[19]
  viability, T/C: 18.2%
[20]
  viability, T/C: 18.3%
[21]
  viability, T/C: 13.8%
[22]
  viability, T/C: 15.4%
[23]
  viability, T/C: 14.1%
[24]
  viability, T/C: 10.8%
[25]
  viability, T/C: 20.3%
[26]
  viability, T/C: 17.9%
[27]
  viability, T/C: 18%
[28]
  viability, T/C: 16.1%
[29]
  viability, T/C: 16.6%
[30]
  viability, T/C: 13.6%
[31]
  viability, T/C: 19.5%
[32]
  viability, T/C: 21.2%
[33]
  viability, T/C: 19.6%
[34]
  viability, T/C: 18.5%
[35]
  viability, T/C: 16.5%
[36]
  viability, T/C: 14.5%

## Cc1cccc(N(C)C(=O)C2C(O)CCN2c2nc(C)cc(C(F)(F)F)c2C#N)c1 (stereo not given) + Cc1cnc(CNC(=O)c2c(=O)c3ccc(N4CCCN(C)CC4)nc3n3c2sc2ccccc23)cn1
Second compound 0.0316 µM
  IC50: < 31.6 nM
Second compound 0.1 µM
  IC50: < 31.6 nM
Second compound 0.316 µM
  IC50: < 31.6 nM
Second compound 1 µM
  IC50: < 31.6 nM
Second compound 3.16 µM
  IC50: < 31.6 nM
Second compound 10 µM
  IC50: < 31.6 nM
[1]
  viability, T/C: 52.7%
[2]
  viability, T/C: 43.5%
[3]
  viability, T/C: 35%
[4]
  viability, T/C: 39.7%
[5]
  viability, T/C: 40.5%
[6]
  viability, T/C: 43.9%
[7]
  viability, T/C: 29.2%
[8]
  viability, T/C: 22.6%
[9]
  viability, T/C: 25.3%
[10]
  viability, T/C: 23.2%
[11]
  viability, T/C: 25.7%
[12]
  viability, T/C: 24.6%
[13]
  viability, T/C: 21.8%
[14]
  viability, T/C: 18.1%
[15]
  viability, T/C: 21.6%
[16]
  viability, T/C: 21.6%
[17]
  viability, T/C: 24.2%
[18]
  viability, T/C: 22.7%
[19]
  viability, T/C: 19.1%
[20]
  viability, T/C: 19.7%
[21]
  viability, T/C: 19.7%
[22]
  viability, T/C: 19.2%
[23]
  viability, T/C: 20.8%
[24]
  viability, T/C: 25.2%
[25]
  viability, T/C: 12.5%
[26]
  viability, T/C: 19.6%
[27]
  viability, T/C: 19.4%
[28]
  viability, T/C: 21%
[29]
  viability, T/C: 22.4%
[30]
  viability, T/C: 20.7%
[31]
  viability, T/C: 22.3%
[32]
  viability, T/C: 17.8%
[33]
  viability, T/C: 21%
[34]
  viability, T/C: 17.9%
[35]
  viability, T/C: 22.9%
[36]
  viability, T/C: 20.8%
